Source: US11879140B2, “P21 mRNA targeting DNAzymes” (1E Therapeutics Ltd., priority 2020, dated 2024)

The substances below were run on senescent human IMR-90 fibroblast cells.
Type: cell-based
Procedure: Human IMR-90, BJ, WI-38 fibroblasts and REC epithelial cells were obtained from ATCC and grown at 5% oxygen. IMR-90 and REC cells were maintained in DMEM medium comprising 100 units per ml of penicillin, […] of streptomycin and 10% fetal bovine serum. BJ and WI-38 cells were maintained in EMEM medium comprising 100 units per ml of penicillin, […] of streptomycin, 10% fetal bovine serum, 1% Pyruvate, 1% L-Glutamine, mLFs were isolated according to standard procedures [Seluanov, A., et al. J Vis Exp (2010) (44):2033] and grown at 5% oxygen. Cells were maintained in EMEM medium comprising 100 units per ml of penicillin, […] of streptomycin and 15% fetal bovine serum.
DNA damage induced senescence (DIS) was induced by etoposide treatment (E1383, Sigma) at a concentration of […] for IMR-90, BJ, and WI-38, 16 μM for mLF and 12.5 μM for REC for a duration of 48 hours. Cells acquired the senescence phenotype 7 days post treatment (determined by SA-beta-gal staining).
Oncogene Induced Senescence (OIS) was induced by means of retroviral infection with H-RasG12 (pLNCX2) at 5% oxygen. Retroviruses were packaged, and infections were performed as described below.
Replicative Induced Senescence (RIS) was induced by long-term passaging of the cells in tissue culture. Cells acquired the senescence phenotype after 40 population doublings.
Primary target cells (IMR-90, BJ, […]) were plated in 24-well plates at 100,000 cells per well. Cells were transfected with different concentrations of DNAzymes (as depicted in Table 2, below) using Lipofectamine™ 2000 (Invitrogen) according to manufacturer instructions. The percentage of survival was determined based on quantification of remaining adherent cells using PrestoBlue® reagent (A13262, Life Technologies Ltd.) relative to Lipofectamine™ only control and compared to Scramble DNAzyme (Dz_Scramble) [Scramble Arm (Scr A) sequence: ATCTTCCTFggctagctacaacgaCGCCTCTCC, SEQ ID NO: 5, or Scramble catalytic core (Scr B) sequence: AGGAGAACAacagtaactggcgacGGGATGAGG, SEQ ID NO: 86] treated cells, 3-6 days following transfection.

**Q.** With “16 (DNA CCTCTTCTAGGCTAGCTACAACGAGCCAGAGCT; chemistry not given here) [compound 16]” as the substance, how does the Validated cytotoxicity read?
**A.** +

**Q.** For “75 (DNA CTCCTACCAGGCTAGCTACAACGACCCCTTCCT; chemistry not given here) [compound 75]”, which Validated cytotoxicity is on record?
**A.** +

**Q.** Which Validated cytotoxicity does the source give for “78 (DNA TGTCTCCTAGGCTAGCTACAACGACATCCCCTT; chemistry not given here) [compound 78]” here?
**A.** +

**Q.** With “100 (DNA TCTGGGGTTCCGAGCCGGACGATTAGAGGTC; chemistry not given here) [compound 100]” as the substance, how does the Validated cytotoxicity read?
**A.** +

**Q.** For “111 (DNA CATCCTTTAGGCTAGCTACAACGATTCTGGGGT; chemistry not given here) [compound 111]”, which Validated cytotoxicity is on record?
**A.** +

**Q.** Which Validated cytotoxicity does the source give for “174 (DNA GCAAAGAAAGGCTAGCTACAACGAGACTATAGT; chemistry not given here) [compound 174]” here?
**A.** +

**Q.** “185 (DNA CAGATCATGGGCTAGCTACAACGAAGCAAAGAA; chemistry not given here) [compound 185]” was tested. Which Validated cytotoxicity did it give?
**A.** +

**Q.** “224 (DNA TGGGGAAATCCGAGCCGGACGAGGGGCTCAG; chemistry not given here) [compound 224]” was tested. Which Validated cytotoxicity did it give?
**A.** +

**Q.** With “225 (DNA CTGGGGAAAGGCTAGCTACAACGATGGGGCTCA; chemistry not given here) [compound 225]” as the substance, how does the Validated cytotoxicity read?
**A.** +

**Q.** With “236 (DNA CGTATACATCCGAGCCGGACGAGCTGGGGAA; chemistry not given here) [compound 236]” as the substance, how does the Validated cytotoxicity read?
**A.** +

**Q.** For “237 (DNA CCGTATACAGGCTAGCTACAACGATGCTGGGGA; chemistry not given here) [compound 237]”, which Validated cytotoxicity is on record?
**A.** +

**Q.** “252 (DNA TACTCCCCAGGCTAGCTACAACGAATAGCCCGT; chemistry not given here) [compound 252]” was tested. Which Validated cytotoxicity did it give?
**A.** +

**Q.** How did the Validated cytotoxicity turn out when “266 (DNA GTCTGTCTTCCGAGCCGGACGATGAATACTC; chemistry not given here) [compound 266]” was run?
**A.** +

**Q.** For “290 (DNA AGGGGAGGAGGCTAGCTACAACGATTGACGAGT; chemistry not given here) [compound 290]”, which Validated cytotoxicity is on record?
**A.** +

**Q.** With “304 (DNA TTTGTTGGTCCGAGCCGGACGAAGGAAGGGG; chemistry not given here) [compound 304]” as the substance, how does the Validated cytotoxicity read?
**A.** +

**Q.** “317 (DNA TGGTTGCAGGGCTAGCTACAACGAAGCTTTGTT; chemistry not given here) [compound 317]” was tested. Which Validated cytotoxicity did it give?
**A.** +

**Q.** For “352 (DNA GTTCTGACAGGCTAGCTACAACGAGGCGCCTGA; chemistry not given here) [compound 352]”, which Validated cytotoxicity is on record?
**A.** +

**Q.** For “354 (DNA CGGTTCTGAGGCTAGCTACAACGAATGGCGCCT; chemistry not given here) [compound 354]”, which Validated cytotoxicity is on record?
**A.** +

**Q.** “364 (DNA TGACGGACAGGCTAGCTACAACGACCCCAGCCG; chemistry not given here) [compound 364]” was tested. Which Validated cytotoxicity did it give?
**A.** +

**Q.** “377 (DNA GGGTTCTGAGGCTAGCTACAACGAGGACATCCC; chemistry not given here) [compound 377]” was tested. Which Validated cytotoxicity did it give?
**A.** +

**Q.** Which Validated cytotoxicity does the source give for “387 (DNA GCTGCCGCAGGCTAGCTACAACGAGGGTTCTGA; chemistry not given here) [compound 387]” here?
**A.** +

**Q.** Which Validated cytotoxicity does the source give for “394 (DNA AGGCCTTGTCCGAGCCGGACGAGCCGCATGG; chemistry not given here) [compound 394]” here?
**A.** +

**Q.** How did the Validated cytotoxicity turn out when “442 (DNA AGTCGCGGTCCGAGCCGGACGACAGCTGCTC; chemistry not given here) [compound 442]” was run?
**A.** +

**Q.** “495 (DNA GAAGTTCCAGGCTAGCTACAACGACGCTCACGG; chemistry not given here) [compound 495]” was tested. Which Validated cytotoxicity did it give?
**A.** +

**Q.** “603 (DNA ATCCCGGCTCCGAGCCGGACGACGCCGGGGC; chemistry not given here) [compound 603]” was tested. Which Validated cytotoxicity did it give?
**A.** +

**Q.** For “835 (DNA AGGGCTTCTCCGAGCCGGACGACTTGGAGAA; chemistry not given here) [compound 835]”, which Validated cytotoxicity is on record?
**A.** +

**Q.** How did the Validated cytotoxicity turn out when “846 (DNA GTGGGCGGAGGCTAGCTACAACGATAGGGCTTC; chemistry not given here) [compound 846]” was run?
**A.** +

**Q.** For “857 (DNA GCAGGCTTTCCGAGCCGGACGATGTGGGCGG; chemistry not given here) [compound 857]”, which Validated cytotoxicity is on record?
**A.** +

**Q.** For “974 (DNA GGGTATGTAGGCTAGCTACAACGAATGAGGAGG; chemistry not given here) [compound 974]”, which Validated cytotoxicity is on record?
**A.** +

**Q.** “1003 (DNA GCCAGAGGTCCGAGCCGGACGAGGGGGGCAG; chemistry not given here) [compound 1003]” was tested. Which Validated cytotoxicity did it give?
**A.** +

**Q.** Which Validated cytotoxicity does the source give for “1013 (DNA TAATTCTAAGGCTAGCTACAACGAGCCAGAGGC; chemistry not given here) [compound 1013]” here?
**A.** +

**Q.** With “1089 (DNA TAAATAGTAGGCTAGCTACAACGATTCATAAAA; chemistry not given here) [compound 1089]” as the substance, how does the Validated cytotoxicity read?
**A.** +

**Q.** How did the Validated cytotoxicity turn out when “1252 (DNA GGGGGTGAAGGCTAGCTACAACGATTCATAACC; chemistry not given here) [compound 1252]” was run?
**A.** +

**Q.** Which Validated cytotoxicity does the source give for “1417 (DNA GCTCAGCCTCCGAGCCGGACGAAGGCTGTGC; chemistry not given here) [compound 1417]” here?
**A.** +

**Q.** For “1418 (DNA AGCTCAGCTCCGAGCCGGACGATAGGCTGTG; chemistry not given here) [compound 1418]”, which Validated cytotoxicity is on record?
**A.** +

**Q.** With “1455 (DNA AGGGGGGTAGGCTAGCTACAACGACAAGAGCCA; chemistry not given here) [compound 1455]” as the substance, how does the Validated cytotoxicity read?
**A.** +

**Q.** For “1467 (DNA TTCACAAGAGGCTAGCTACAACGAAGAGGGGGG; chemistry not given here) [compound 1467]”, which Validated cytotoxicity is on record?
**A.** +

**Q.** “1504 (DNA GGGGTGGTTCCGAGCCGGACGAGCTCCAGGA; chemistry not given here) [compound 1504]” was tested. Which Validated cytotoxicity did it give?
**A.** +

**Q.** For “1524 (DNA GAGGGGCCAGGCTAGCTACAACGAGAGGGCAGG; chemistry not given here) [compound 1524]”, which Validated cytotoxicity is on record?
**A.** +

**Q.** For “1582 (DNA CAGGGGAGTCCGAGCCGGACGAAAAGAGGGA; chemistry not given here) [compound 1582]”, which Validated cytotoxicity is on record?
**A.** +

**Q.** Which Validated cytotoxicity does the source give for “1591 (DNA CAAAAGGTAGGCTAGCTACAACGAAGGGGAGCC; chemistry not given here) [compound 1591]” here?
**A.** +

**Q.** How did the Validated cytotoxicity turn out when “1602 (DNA CTGGGGCTTCCGAGCCGGACGATCAAAAGGT; chemistry not given here) [compound 1602]” was run?
**A.** +

**Q.** Which Validated cytotoxicity does the source give for “1610 (DNA AAGGGTAGTCCGAGCCGGACGAGGGGCTCCT; chemistry not given here) [compound 1610]” here?
**A.** +

**Q.** How did the Validated cytotoxicity turn out when “1641 (DNA AGAGGGGAAGGCTAGCTACAACGATGCAGAGCC; chemistry not given here) [compound 1641]” was run?
**A.** +

**Q.** “1683 (DNA AGAGGGTATCCGAGCCGGACGAGAAGGGAAA; chemistry not given here) [compound 1683]” was tested. Which Validated cytotoxicity did it give?
**A.** +

**Q.** Which Validated cytotoxicity does the source give for “1684 (DNA GAGAGGGTAGGCTAGCTACAACGATGAAGGGAA; chemistry not given here) [compound 1684]” here?
**A.** +

**Q.** How did the Validated cytotoxicity turn out when “1719 (DNA GGGGTGGGAGGCTAGCTACAACGAAGGCACCTC; chemistry not given here) [compound 1719]” was run?
**A.** +

**Q.** Which Validated cytotoxicity does the source give for “1736 (DNA CCATTGAGTCCGAGCCGGACGAGGGGGTGGG; chemistry not given here) [compound 1736]” here?
**A.** +

**Q.** How did the Validated cytotoxicity turn out when “1742 (DNA TCCAGTCCAGGCTAGCTACAACGATGAGCTGGG; chemistry not given here) [compound 1742]” was run?
**A.** +

**Q.** “1786 (DNA GAGGTAGAAGGCTAGCTACAACGATAGGGTGCC; chemistry not given here) [compound 1786]” was tested. Which Validated cytotoxicity did it give?
**A.** +

**Q.** Which Validated cytotoxicity does the source give for “1791 (DNA TGCCTGAGGGGCTAGCTACAACGAAGAACTAGG; chemistry not given here) [compound 1791]” here?
**A.** +

**Q.** How did the Validated cytotoxicity turn out when “1800 (DNA TGCTTGAGTCCGAGCCGGACGAGCCTGAGGT; chemistry not given here) [compound 1800]” was run?
**A.** +

**Q.** For “1838 (DNA GGACCCTCAGGCTAGCTACAACGACCCCACAGC; chemistry not given here) [compound 1838]”, which Validated cytotoxicity is on record?
**A.** +

**Q.** Which Validated cytotoxicity does the source give for “1851 (DNA GTGCCACCAGGCTAGCTACAACGAATGGGACCC; chemistry not given here) [compound 1851]” here?
**A.** +

**Q.** Which Validated cytotoxicity does the source give for “1854 (DNA CCTGTGCCAGGCTAGCTACAACGACACATGGGA; chemistry not given here) [compound 1854]” here?
**A.** +
